Test results taken from patent US20230233520A1, “COMBINATION THERAPY OF ARTEMISININ-RELATED COMPOUNDS AND HISTONE DEACETYLASE INHIBITORS FOR TREATMENT OF HPV-RELATED BENIGN, PREMALIGNANT, AND MALIGNANT DISEASES” (Georgetown University, priority 2020, published 2023).
Like-named read-outs stand apart in the source and are kept apart here.

What was measured:
[1] = system: HeLa cells; assay: […]-GLO cell viability, drugs alone and in combination (Example 4); type: cell-based; conditions: Homo sapiens
Method: (§1) The IC50 values were calculated from the cell viability assays for each drug alone and in combination. […] Cells were then incubated for a 24-hour period to allow them to adhere to the wells. […] For the experiments involving artesunate and panobinostat, the concentrations used varied by cell type. […] The buffer/enzyme solution was mixed and applied to the cells according to the Promega protocol. Cells were then placed on the orbital shaker for 2 minutes and then placed in the luminometer for reading. To analyze the data, the background (from only the DMEM media) was subtracted from the luminescence of each well. […] All readings were normalized based upon the control values. […] Analyses were conducted using GraphPad Prism 9. The combination index and dose-reduction index values were calculated based using the summary of the data for all three cell types. […] Dose reduction values are the measure of how many folds the dose of each drug in a synergistic combination may be reduced compared with the doses of each drug alone. […] The values are shown in Table 4 for IC50 and in Table 5 for IC90. […] The methods of analysis are the same as those described above. […] A DMSO experimental stock was made in DMEM as a negative control. […] Analyses were conducted using GraphPad Prism 9. The combination index and dose-reduction index values were calculated based using the summary of the data for all three cell types. […] Dose reduction values are the measure of how many folds the dose of each drug in a synergistic combination may be reduced compared with the doses of each drug alone. […] The values are shown in Table 6 for IC50 and in Table 7 for IC90.

[2] = system: SiHa cells; assay: as above; type: cell-based; conditions: Homo sapiens
Method: as §1

[3] = system: HEC/16E6E7 cells; assay: as above; type: cell-based
Method: The cell lines were treated with artesunate, vorinostat, and panobinostat individually and in combination. The IC50 values were calculated from the cell viability assays for each drug alone and in combination. […] Cells were then incubated for a 24-hour period to allow them to adhere to the wells. […] For the experiments involving artesunate and panobinostat, the concentrations used varied by cell type. […] After an incubation time of 72 hours, the […]-GLO® Luminescent Cell Viability Assay (Promega) was conducted. The buffer/enzyme solution was mixed and applied to the cells according to the Promega protocol. Cells were then placed on the orbital shaker for 2 minutes and then placed in the luminometer for reading. To analyze the data, the background (from only the DMEM media) was subtracted from the luminescence of each well. […] All readings were normalized based upon the control values. […] Analyses were conducted using GraphPad Prism 9. The combination index and dose-reduction index values were calculated based using the summary of the data for all three cell types. […] Dose reduction values are the measure of how many folds the dose of each drug in a synergistic combination may be reduced compared with the doses of each drug alone. By reducing dose, toxicity is reduced without compromising effect. The values are shown in Table 4 for IC50 and in Table 5 for IC90. […] The methods of analysis are the same as those described above. […] A DMSO experimental stock was made in DMEM as a negative control. […] Analyses were conducted using GraphPad Prism 9. The combination index and dose-reduction index values were calculated based using the summary of the data for all three cell types. […] Dose reduction values are the measure of how many folds the dose of each drug in a synergistic combination may be reduced compared with the doses of each drug alone. By reducing dose, toxicity is reduced without compromising effect. The values are shown in Table 6 for IC50 and in Table 7 for IC90.

[4] = system: HeLa cells; assay: […]-GLO cell viability, single drugs (Example 1); type: cell-based; conditions: 72 h
Text: (§2) To test the individual effects of artesunate and panobinostat, three cervical cancer cell model lines (Caski, SiHa, and HeLa cells) were obtained from the American Type Culture Collection (Manassas, Va.) and maintained in DMEM (Invitrogen) supplemented with 10% fetal bovine serum (Quality Biological, Inc., Gaitherburg, Md.) and penicillin/streptomycin (Invitrogen), in accordance with previous experiments. The cells were split every 3 to 5 days to prevent any of the lines from becoming fully confluent.
(§3) To prepare the cells for treatment, 6000 cells per well were seeded in 96-well plates (for each cell line). Cells were then incubated for a 24-hour period to allow them to adhere to the wells. The cells were then treated with various concentrations of artesunate or panobinostat. For artesunate, the concentrations used for treating each cell type were 80 μM, 40 μM, 20 μM, 10 μM, 5 μM, 2.5 μM, and 1.25 μM. […] Control wells consisted of DMEM, in which the DMSO concentration was the highest drug concentration (0.2% for artesunate, 0.064% for panobinostat) tested. Each concentration was performed in triplicate and the control was conducted in sextuplicate.
(§4) After an incubation time of 72 hours, the […]-GLO® Luminescent Cell Viability Assay (Promega) was conducted. The buffer/enzyme solution was mixed and applied to the cells according to the Promega protocol. Cells were then placed on the orbital shaker for 3 minutes, incubated for 30 minutes, and placed in the luminometer for reading.
(§5) To analyze the data, the background (from only the DMEM media) was subtracted from the luminescence of each well. The program GraphPad Prism 7 was then used to calculate the IC50 values and the cell viability curves for each drug and cell line. All readings were normalized based upon the control values.

[5] = system: SiHa cells; assay: […]-GLO cell viability, single drugs (Example 1); type: cell-based; conditions: Homo sapiens, 72 h, read-out: IC50 Confidence Interval
Text: as §2, §3, §4, §5

[6] = system: Caski cells; assay: […]-GLO cell viability, single drugs (Example 1); type: cell-based; conditions: Homo sapiens, Ca-Ski, 72 h, read-out: IC50 Confidence Interval
Text: as §2, §3, §4, §5

[7] = system: HeLa cells; assay: […]-GLO cell viability, artesunate/panobinostat dose pairings, CompuSyn analysis (Example 1); type: cell-based; parameters: key: fraction surviving, normalized to average of untreated controls
Method: To test the combined effects of artesunate and panobinostat, HeLa cells were cultured as previously described. The cells were then seeded in 96-well plates as discussed above. After the 24-hour incubation period, the cells were treated by the following means. […] All possible pairings of each drug concentration were tested. […] All pairings were performed in triplicate and the control was performed in sextuplicate.
After 72 hours of incubation time, the […]-GLO® Luminescent Cell Viability Assay (Promega) was conducted as above. The combination effect of the drugs was analyzed using the CompuSyn program. The background (DMEM only) was subtracted as described previously and all experimental wells were normalized to the average of the controls (as above).

[8] = toxicity to humans; cited from earlier work
[9] = system: HPV precancers; conditions: self-administered by patients; published clinical trial [8]; cited from earlier work
[10] = system: HPV 16- and HPV 18-positive cells; conditions: in vitro experiments [7]; cited from earlier work

Q: What does the source list for `O=C(CCCCCCC(=O)Nc1ccccc1)NO` [vorinostat]?
A: IC90 ([1]; Hela, SAHA alone, read-out: IC90 SAHA): 6.5 µM; IC90 ([2]; Siha, SAHA alone, read-out: IC90 SAHA): 13.2 µM; IC50 ([3]; HEC/16E6E7, SAHA alone, read-out: IC50 SAHA): 2.31 µM; IC90 ([3]; HEC/16E6E7, SAHA alone, read-out: IC90 SAHA): 8.54 µM

Q: Which IC50 ([4]; Homo sapiens, 95% confidence interval, read-out: IC50 Confidence Interval) does the source give for `Cc1[nH]c2ccccc2c1CCNCc1ccc(/C=C/C(=O)NO)cc1` [panobinostat] here?
A: The IC50 was 0.00771 to 0.0132 µM.

Q: What about the IC50 ([4]; Homo sapiens, drug alone, read-out: IC50) of the same molecule?
A: Its IC50 is about 0.01 µM.

Q: What about the IC50 ([4]; drug alone, read-out: IC50) of the same molecule?
A: Its IC50 is 0.0101 µM.

Q: And the IC50 ([5]; 95% confidence interval)?
A: Its IC50 is 0.0199 to 0.0257 µM.

Q: What about the IC50 ([6]; Caski, 95% confidence interval) of the same molecule?
A: Its IC50 is 0.00655 to 0.0125 µM.

Q: What about the IC50 ([1]; Hela, PAN alone, 72 h, read-out: IC50 PAN) of the same molecule?
A: The IC50 was 14.7 µM.

Q: And the IC90 ([1]; Hela, PAN alone, 72 h, read-out: IC90 PAN)?
A: The IC90 was 60.5 µM.

Q: What about the IC50 ([2]; Siha, PAN alone, 72 h, read-out: IC50 PAN) of the same molecule?
A: Its IC50 is 17.8 µM.

Q: And the IC90 ([2]; Siha, PAN alone, 72 h, read-out: IC90 PAN)?
A: Its IC90 is 67.6 µM.

Q: What about the “Effect (fraction of HeLa cells still surviving)” value ([7]; panobinostat 2.5 nM alone) of the same molecule?
A: Its value is 0.7864.

Q: And the “Effect (fraction of HeLa cells still surviving)” value ([7]; panobinostat 5.0 nM alone)?
A: The value was 0.7379.

Q: And the “Effect (fraction of HeLa cells still surviving)” value ([7]; panobinostat 10.0 nM alone)?
A: The value was 0.6177.

Q: And the “Effect (fraction of HeLa cells still surviving)” value ([7]; panobinostat 20.0 nM alone)?
A: Its value is 0.4359.

Q: And the “Effect (fraction of HeLa cells still surviving)” value ([7]; panobinostat 40.0 nM alone)?
A: Its value is 0.3322.

Q: What about the IC50 ([3]; HEC/16E6E7, PAN alone, 72 h, read-out: IC50 PAN) of the same molecule?
A: Its IC50 is 25 µM.

Q: And the IC90 ([3]; HEC/16E6E7, PAN alone, 72 h, read-out: IC90 PAN)?
A: The IC90 was 115 µM.

Q: Which “safety relative to artemether” value [8] does the source give for `C[C@H]1[C@H](OC(=O)CCC(=O)O)O[C@@H]2O[C@@]3(C)CC[C@H]4[C@H](C)CC[C@@H]1[C@@]24OO3` [artesunate] here?
A: Its value is “twice as safe as artemether”.

Q: What about the “toxicity relative to chloroquinine” value [8] of the same molecule?
A: The value was “one-fiftieth as toxic as chloroquinine”.

Q: And the IC50 ([4]; Homo sapiens, drug alone)?
A: The IC50 was about 5 µM.

Q: What about the IC50 ([4]; Homo sapiens, read-out: IC50 Confidence Interval, HeLa, 95% confidence interval) of the same molecule?
A: The IC50 was 4.33 to 6.07 µM.

Q: And the IC50 ([4]; drug alone)?
A: Its IC50 is 5.13 µM.

Q: And the IC50 [5]?
A: Its IC50 is 6.8 to 9.43 µM.

Q: And the IC50 [6]?
A: The IC50 was 1.74 to 3.14 µM.

Q: And the “cure of HPV precancers” value [9]?
A: Its value is 70%.

Q: And the IC50 ([1]; HeLa, 72 h, read-out: IC50 ART)?
A: The IC50 was 3.7 µM.

Q: And the IC90 ([1]; HeLa, 72 h, read-out: IC90 ART)?
A: The IC90 was 14.3 µM.

Q: What about the IC50 ([1]; HeLa, read-out: IC50 ART) of the same molecule?
A: The IC50 was 4.55 µM.

Q: And the IC90 ([1]; HeLa, read-out: IC90 ART)?
A: The IC90 was 15.5 µM.

Q: What about the IC50 ([2]; SiHa, 72 h, read-out: IC50 ART) of the same molecule?
A: Its IC50 is 4.83 µM.

Q: And the IC90 ([2]; SiHa, 72 h, read-out: IC90 ART)?
A: The IC90 was 30 µM.

Q: What about the IC50 ([2]; SiHa, read-out: IC50 ART) of the same molecule?
A: The IC50 was 6.06 µM.

Q: And the IC90 ([2]; SiHa, read-out: IC90 ART)?
A: The IC90 was 34.5 µM.

Q: And the “killing of HPV-positive cells” value [10]?
A: Its value is “selectively kill”.

Q: And the “Effect (fraction of HeLa cells still surviving)” value ([7]; artesunate 1.25 uM alone)?
A: The value was 0.7457.

Q: And the “Effect (fraction of HeLa cells still surviving)” value ([7]; artesunate 2.5 uM alone)?
A: The value was 0.6418.

Q: And the “Effect (fraction of HeLa cells still surviving)” value ([7]; artesunate 5.0 uM alone)?
A: Its value is 0.5808.

Q: What about the “Effect (fraction of HeLa cells still surviving)” value ([7]; artesunate 10.0 uM alone) of the same molecule?
A: Its value is 0.4287.

Q: What about the “Effect (fraction of HeLa cells still surviving)” value ([7]; artesunate 20.0 uM alone) of the same molecule?
A: Its value is 0.3015.

Q: What about the IC50 ([3]; 72 h, read-out: IC50 ART) of the same molecule?
A: The IC50 was 4.93 µM.

Q: And the IC90 ([3]; 72 h, read-out: IC90 ART)?
A: Its IC90 is 77.6 µM.

Q: What about the IC50 ([3]; read-out: IC50 ART) of the same molecule?
A: Its IC50 is 6.99 µM.

Q: What about the IC90 ([3]; read-out: IC90 ART) of the same molecule?
A: Its IC90 is 158 µM.
